How the values were obtained:
Test in all cases: Antimicrobial activity (MIC), agar diluting method
Type in all cases: cell-based
[1] = system: Bacillus subtilis (ATCC 6633); conditions: ATCC6633, Mueller Hinton agar, 35° C., 18 hours
Description: (§1) (1) Antimicrobial activity test
(§2) The antimicrobial activity was measured by the agar diluting method in accordance with the Standardized Method of the Japanese Society of Chemotherapy. A twofold dilution of a test compound was prepared by using M/50 phosphate buffer (pH 7.0). One milliliter of this solution and 9 ml of a Mueller Hinton agar medium (made by Difco Laboratories were mixed in a Petri dish having a diameter of 9 cm to prepare plates. A test microorganism was cultured overnight in a stationary condition at 35° C. in a Mueller-Hinton broth (made by Difco) and diluted with physiological saline to provide a cell density of about 10 ^6 cells/ml. Five microliter of the microorganism suspension was inoculated on the agar plates using a microplanter (made by Sakuma Seisakusho). The plates were incubated at 35° C. for 18 hours. The lowest concentration of the test compound at which the growth of the microorganism was completed inhibited is defined as the minimum inhibitory concentration (MIC) of the test compound against the test organism.

[2] = system: Comamonas terrigena (B 996); conditions: Mueller Hinton agar, 35° C., 18 hours
Description: as §1, §2

[3] = system: Micrococcus luteus (ATCC 9341); conditions: ATCC9341, Mueller Hinton agar, 35° C., 18 hours
Description: as §1, §2

[4] = system: Staphylococcus aureus (FDA 209 p); conditions: FDA209, Mueller Hinton agar, 35° C., 18 hours
Description: as §1, §2

Row | MIC [1] | MIC [2] | MIC [3] | MIC [4] | Compound
1 | 6.25 µg/mL | 0.39 µg/mL | 3.13 µg/mL | 0.39 µg/mL | COC(=O)N(C)[C@H]1C(=O)N2C(C(=O)O)=C(SCCNC(C)=O)C[C@H]12 [[22], sodium (5R,6R)-6-(N-carbomethoxy-N-methyl)amino-3-acetamidoethylthio-1-azabicyclo[3.2.0]hept-2-ene-7-one-2-carboxylate]
2 | 1.56 µg/mL | 3.13 µg/mL | 0.78 µg/mL | 0.2 µg/mL | CC(=O)NCCSC1=C(C(=O)O)N2C(=O)[C@H](N(C)S(C)(=O)=O)[C@H]2C1 [[29], sodium (5R,6R)-3-(2-acetamidoethylthio)-6-(N-methanesulfonyl)methylamino-7-oxo-1-azabicyclo[3.2.0]hept-2-ene-2-carboxylate]
3 | 1.56 µg/mL | 1.56 µg/mL | 1.56 µg/mL | 0.2 µg/mL | CC(=O)NCCSC1=C(C(=O)O)N2C(=O)[C@H](N(C)C(=O)OCc3ccccc3)[C@H]2C1 [[14], sodium (5R,6R)-3-(2-acetamidoethylthio)-6-(N-benzyloxycarbonyl)methylamino-7-oxo-1-azabicyclo[3.2.0]hept-2-ene-2-carboxylate]

Reference: patent publication US4996314A, “6-(disubstituted amino)carbapenem compounds” (Sanraku Incorporated, priority 1986, dated 1991)
